Assay results published in the supplement of paper PMC8612539.
Converted amounts (≈) assume the structure as drawn.

Experiments:
Enterococcus spp. = test: minimum inhibitory concentration (MIC)
Method: (§1)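 Broth microdilution MIC (Sensititre BOPO7F bovine plate, CLSI methods) of 19 antimicrobials against field isolates of P. multocida, M. haemolytica, H. somni (deep nasopharyngeal swabs) and E. coli, Enterococcus spp. (rectal swabs) from weaned dairy heifers. Incubation 16-24 h at 35 C. MIC is the lowest concentration preventing visible growth. Values with <= or > lie at the tested range limits. Trimethoprim-sulfamethoxazole is given as the trimethoprim component of a 1:19 mixture.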

Mannheimia haemolytica = test: minimum inhibitory concentration (MIC)
Method: as §1

CC[C@H]1OC(=O)C[C@@H](O)[C@H](C)[C@@H](O[C@@H]2O[C@H](C)[C@@H](O)[C@H](N(C)C)[C@H]2O)[C@@H](CCN2CCCCC2)C[C@@H](C)C(=O)/C=C/C(C)=C/[C@@H]1CN1CCCCC1 [Tildipirosin]
minimum inhibitory concentration [µg/mL]
Conditions	Enterococcus spp.	Mannheimia haemolytica
isolate (source animal id): 2	8 (≈ 10.9 µM)	–
isolate (source animal id): 8	–	≤ 1
isolate (source animal id): 13	–	≤ 1
isolate (source animal id): 18	–	≤ 1
isolate (source animal id): 21	–	≤ 1
isolate (source animal id): 25	–	16 (≈ 21.8 µM)
isolate (source animal id): 27	–	16 (≈ 21.8 µM)
isolate (source animal id): 28	–	4 (≈ 5.45 µM)
isolate (source animal id): 30	–	≤ 1
isolate (source animal id): 31	–	4 (≈ 5.45 µM)
isolate (source animal id): 32	–	≤ 1
isolate (source animal id): 34	–	≤ 1
isolate (source animal id): 35	> 16	–
isolate (source animal id): 36	–	16 (≈ 21.8 µM)
isolate (source animal id): 37	–	16 (≈ 21.8 µM)
isolate (source animal id): 40	–	≤ 1
isolate (source animal id): 41	–	≤ 1
isolate (source animal id): 42	8 (≈ 10.9 µM)	–
isolate (source animal id): 43	–	≤ 1
isolate (source animal id): 44	16 (≈ 21.8 µM)	–
isolate (source animal id): 46	–	16 (≈ 21.8 µM)
isolate (source animal id): 49	–	16 (≈ 21.8 µM)
isolate (source animal id): 50	–	16 (≈ 21.8 µM)
isolate (source animal id): 51	–	≤ 1
isolate (source animal id): 52	–	≤ 1
isolate (source animal id): 53	–	≤ 1
isolate (source animal id): 55	–	≤ 1
isolate (source animal id): 56	–	≤ 1
isolate (source animal id): 57	–	> 16
isolate (source animal id): 79	16 (≈ 21.8 µM)	–
isolate (source animal id): 88	8 (≈ 10.9 µM)	–
isolate (source animal id): 91	8 (≈ 10.9 µM)	–
isolate (source animal id): 92	16 (≈ 21.8 µM)	–
isolate (source animal id): 100	–	16 (≈ 21.8 µM)
isolate (source animal id): 103	–	16 (≈ 21.8 µM)
isolate (source animal id): 107	–	16 (≈ 21.8 µM)
isolate (source animal id): 108	–	16 (≈ 21.8 µM)
isolate (source animal id): 111	8 (≈ 10.9 µM)	–
isolate (source animal id): 112	–	> 16
isolate (source animal id): 113	–	> 16
isolate (source animal id): 121	–	16 (≈ 21.8 µM)
isolate (source animal id): 122	> 16	2 (≈ 2.72 µM)
isolate (source animal id): 123	16 (≈ 21.8 µM)	> 16
isolate (source animal id): 126	–	> 16
isolate (source animal id): 133	8 (≈ 10.9 µM)	> 16
isolate (source animal id): 135	–	> 16
isolate (source animal id): 138	–	> 16
isolate (source animal id): 141	–	> 16
isolate (source animal id): 142	–	> 16
isolate (source animal id): 145	–	4 (≈ 5.45 µM)
isolate (source animal id): 149	–	2 (≈ 2.72 µM)
isolate (source animal id): 151	–	2 (≈ 2.72 µM)
isolate (source animal id): 152	–	16 (≈ 21.8 µM)
isolate (source animal id): 154	–	≤ 1
isolate (source animal id): 158	> 16	–
isolate (source animal id): 159	–	> 16
isolate (source animal id): 162	–	> 16
isolate (source animal id): 168	> 16	–
isolate (source animal id): 169	16 (≈ 21.8 µM)	–
isolate (source animal id): 170	–	2 (≈ 2.72 µM)
isolate (source animal id): 171	16 (≈ 21.8 µM)	≤ 1
isolate (source animal id): 172	–	2 (≈ 2.72 µM)
isolate (source animal id): 173	–	2 (≈ 2.72 µM)
isolate (source animal id): 175	> 16	–
isolate (source animal id): 177	> 16	–
isolate (source animal id): 179	–	2 (≈ 2.72 µM)
isolate (source animal id): 180	–	≤ 1
isolate (source animal id): 181	16 (≈ 21.8 µM)	–
isolate (source animal id): 182	16 (≈ 21.8 µM)	–
isolate (source animal id): 183	8 (≈ 10.9 µM)	≤ 1
isolate (source animal id): 186	–	≤ 1
isolate (source animal id): 187	16 (≈ 21.8 µM)	≤ 1
isolate (source animal id): 188	–	≤ 1
isolate (source animal id): 190	16 (≈ 21.8 µM)	≤ 1
isolate (source animal id): 191	–	2 (≈ 2.72 µM)
isolate (source animal id): 192	–	≤ 1
isolate (source animal id): 194	16 (≈ 21.8 µM)	–
isolate (source animal id): 195	16 (≈ 21.8 µM)	–
isolate (source animal id): 197	16 (≈ 21.8 µM)	–
isolate (source animal id): 201	–	2 (≈ 2.72 µM)
isolate (source animal id): 202	–	4 (≈ 5.45 µM)
isolate (source animal id): 209	–	2 (≈ 2.72 µM)
isolate (source animal id): 211	16 (≈ 21.8 µM)	2 (≈ 2.72 µM)
isolate (source animal id): 214	16 (≈ 21.8 µM)	–
isolate (source animal id): 220	–	2 (≈ 2.72 µM)
isolate (source animal id): 221	–	2 (≈ 2.72 µM)
isolate (source animal id): 222	16 (≈ 21.8 µM)	–
isolate (source animal id): 223	8 (≈ 10.9 µM)	2 (≈ 2.72 µM)
isolate (source animal id): 228	> 16	–
isolate (source animal id): 230	> 16	–
isolate (source animal id): 233	–	8 (≈ 10.9 µM)
isolate (source animal id): 235	> 16	–
isolate (source animal id): 236	8 (≈ 10.9 µM)	–
isolate (source animal id): 237	–	16 (≈ 21.8 µM)
isolate (source animal id): 239	8 (≈ 10.9 µM)	–
isolate (source animal id): 241	> 16	16 (≈ 21.8 µM)
isolate (source animal id): 244	16 (≈ 21.8 µM)	–
isolate (source animal id): 246	16 (≈ 21.8 µM)	–
isolate (source animal id): 247	> 16	–
isolate (source animal id): 250	16 (≈ 21.8 µM)	–
isolate (source animal id): 252	> 16	16 (≈ 21.8 µM)
isolate (source animal id): 253	–	16 (≈ 21.8 µM)
isolate (source animal id): 259	–	> 16
isolate (source animal id): 260	–	> 16
isolate (source animal id): 262	–	16 (≈ 21.8 µM)
isolate (source animal id): 268	> 16	–
isolate (source animal id): 282	8 (≈ 10.9 µM)	> 16
isolate (source animal id): 285	> 16	–
isolate (source animal id): 287	–	> 16
isolate (source animal id): 288	–	≤ 1
isolate (source animal id): 289	16 (≈ 21.8 µM)	–
isolate (source animal id): 290	16 (≈ 21.8 µM)	–
isolate (source animal id): 291	–	≤ 1
isolate (source animal id): 293	–	16 (≈ 21.8 µM)
isolate (source animal id): 296	16 (≈ 21.8 µM)	–
isolate (source animal id): 298	8 (≈ 10.9 µM)	> 16
isolate (source animal id): 299	–	> 16
isolate (source animal id): 300	–	≤ 1
isolate (source animal id): 301	8 (≈ 10.9 µM)	–
isolate (source animal id): 302	–	> 16
isolate (source animal id): 304	–	> 16
isolate (source animal id): 306	–	≤ 1
isolate (source animal id): 308	–	≤ 1
isolate (source animal id): 309	–	≤ 1
isolate (source animal id): 310	> 16	–
isolate (source animal id): 313	–	> 16
isolate (source animal id): 318	–	8 (≈ 10.9 µM)
isolate (source animal id): 320	8 (≈ 10.9 µM)	≤ 1
isolate (source animal id): 321	–	> 16
isolate (source animal id): 323	–	> 16
isolate (source animal id): 324	–	16 (≈ 21.8 µM)
isolate (source animal id): 326	–	> 16
isolate (source animal id): 328	–	> 16
isolate (source animal id): 329	–	> 16
isolate (source animal id): 331	8 (≈ 10.9 µM)	–
isolate (source animal id): 333	16 (≈ 21.8 µM)	> 16
isolate (source animal id): 335	–	16 (≈ 21.8 µM)
isolate (source animal id): 338	–	16 (≈ 21.8 µM)
isolate (source animal id): 341	> 16	–
